In article PMC6742641, “Design, synthesis and biological evaluation of a series of CNS penetrant HDAC inhibitors structurally derived from amyloid-β probes” (Scientific Reports, 2019):
“Also recorded” adds a separate entry of the source.

Experiments:
SH-SY5Y cells [1] = assay: Cell proliferation (anti-proliferation) assay, MTS; assay type: cell-based, human
Experimental: SH-SY5Y cells were grown in DMEM with L-glutamin supplemented with streptomycin ([…]), penicillin (100 units/mL), and 10% fetal bovine serum (FBS). Cells were grown to confluence in a humidified atmosphere (37 °C, 5% CO2).
SH-SY5Y cells (1.5 × 10^3 cells/well) were seeded in a clear 96-well plate, the medium volume was brought to 100 µL, and the cells were allowed to attach overnight. The next day, various concentrations of compounds or DMSO were added to the wells. Cells were then incubated at 37 °C for 24, 48 and 72 h. Cell viability was determined using the Promega Cell Titer 96 Aqueous One Solution cell proliferation assay. Absorbance at 490 nm was read on Tecan Infinite F200 Pro plate reader, and values were expressed as percent of absorbance from cells incubated in DMSO alone.

SH-SY5Y cells [2] = assay: Soft agar colony formation assay; assay type: cell-based, human; conditions: 3 weeks, 3 μM
Experimental: Cells (10^4 cells/well) were seeded in 6 well plate with 1.2% agar. After 12 h incubation, cells were treated with the indicated concentrations of compound 9b or DMSO at 37 °C in 5% humidified CO2 for 3 weeks with continuously changing medium every week. After medium was thrown away, colonies were stained with 0.05% crystal violet for 10 min.

Ac-Histone H3 = assay: Western blot of acetylation status in SH-SY5Y cells; assay type: cell-based, human; conditions: 24 h, 0.5 to 5 μM
Experimental: (§1) Cells were seeded in 100 mm culture dishes (1 × 10^6 cells/dish), and allowed to attach overnight. Inhibitors were added at the concentrations as indicated and the cells were incubated for an additional 24 hours. For comparison, cells were also incubated with DMSO (0.5%) for 24 hours. Cells were harvested in ice-cold lysis buffer (23 mM Tris-HCl pH 7.6, 130 mM NaCl, 1% NP-40, 1% sodium deoxycholate, 0.1% SDS), and 30 µg of lysate per lane was separated by SDS-PAGE and followed by transferring to a PVDF membrane (Bio-Rad). The membrane was blocked with 5% skim milk in TBST, and then incubated with the corresponding antibody (Ac-α-tubulin, α-tubulin, Ac-Histone H3, Histone H3 or β-actin). After binding of an appropriate secondary antibody coupled to horseradish peroxidase, proteins were visualized by ECL chemiluminescence according to the instructions of the manufacturer (GE healthcare, USA).

Ac-α-tubulin = assay: as above; assay type: cell-based, human; conditions: 24 h, 0.5 to 5 μM
Experimental: as §1

PAMPA-BBB assay = assay type: in vitro ADME
Experimental: BBB-PAMPA was conducted by manufacturer’s instruction (pION Inc, MA, USA). […] Transmembrane side to donor part was coated with BBB lipid solution and add 200 μL acceptor buffer in upper part of PAMPA sandwich plate.

- GI50 (SH-SY5Y cells [1]; Homo sapiens, SH-SY5Y neuroblastoma cell line, 72 h, mean ± SD (n = 4)): 2.01 ± 0.33 µM
- IC50 (SH-SY5Y cells [1]; Homo sapiens, SH-SY5Y, Table 1 values IC50, read-out: anti-proliferative activity IC50 against SH-SY5Y cell line): 2010 nM
- Pe (10^−6 cm/s) (PAMPA-BBB assay; 25 μM, pH 7.4, 4 h, 25 °C, mean ± SD, three independent experiments): 27.15 10^−6 cm/s
- CNS +/− classification (PAMPA-BBB assay; PAMPA-BBB): CNS + (CNS + indicates (Pe > 10))
- Papp at 4 h, 25 μM (PAMPA-BBB assay; PAMPA, 25 μM, pH 7.4, 4 h, 25 °C, mean ± SD, three independent experiments, read-out: Pe): 27.1 ± 1.59 ×10⁻⁶ cm/s
Compound: O=C(NO)c1ccc(-c2nc3ccccc3s2)cc1 [Compound 9b]
- SH-SY5Y cell growth impaired (SH-SY5Y cells [1]; 5 μM, 72 hours): ~73%
- anchorage-independent cell growth (colony formation) (SH-SY5Y cells [2]): almost completely inhibited
- acetylation status of Histone H3 (Ac-Histone H3): more efficiently promoted the acetylation of Histone H3 and α-tubulin than compound 9a; also recorded: significantly induced the accumulation of acetylated Histone H3
- acetylation status of α-tubulin (Ac-α-tubulin): more efficiently promoted the acetylation of Histone H3 and α-tubulin than compound 9a; also recorded: dose-dependently increased
